Data: US20260098008A1, “COVALENT, CHEMOGENETIC ACTIVATORS FOR K2P POTASSIUM CHANNELS AND USES THEREOF” (THE REGENTS OF THE UNIVERSITY OF CALIFORNIA, priority 2022, published 2026)
Positions count from the first letter of the chain named.

Tests used:
A286F TREK-1^CG* = molecular target: T1, A286F TREK-1^CG* (Mus musculus, UniProt P97438, A301F/S146C); assay: TEVC in Xenopus oocytes, attenuated channels; type: cell-based; details: 20 μM; sequential addition of ML335, CAT335, BL-1249; 0 mV
T1 construct: expressed in transfected cells; host or cells: Xenopus laevis oocytes injected with mRNA
T1 sequence (P97438 1-411 isoform P97438-2 S131C/A286F): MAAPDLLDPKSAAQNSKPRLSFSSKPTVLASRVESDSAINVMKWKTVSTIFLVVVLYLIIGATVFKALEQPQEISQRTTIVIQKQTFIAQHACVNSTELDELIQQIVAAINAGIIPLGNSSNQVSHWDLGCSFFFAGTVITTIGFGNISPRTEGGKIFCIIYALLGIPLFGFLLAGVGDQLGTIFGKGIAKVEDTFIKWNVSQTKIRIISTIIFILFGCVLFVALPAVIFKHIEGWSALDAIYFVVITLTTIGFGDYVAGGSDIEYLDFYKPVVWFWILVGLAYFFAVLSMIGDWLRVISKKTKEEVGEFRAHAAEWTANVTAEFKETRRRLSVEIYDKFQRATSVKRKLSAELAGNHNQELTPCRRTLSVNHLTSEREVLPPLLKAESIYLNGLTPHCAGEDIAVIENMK
Description: (§1) Mouse K2P2.1 (TREK-1) (Genbank accession number: NP_034737.2), mouse K2P10.1 (TREK-2) (NM_001316665.1), mouse K2P4.1 (TRAAK) (NM_008431.3), human K2P4.1 (TRAAK) (NM_033310.2) and mouse K2P18.1(TRESK) (NM_207261.3) were used for this study. Point mutations were introduced by site-directed mutagenesis using custom primers and confirmed by sequencing before use. For studies using Xenopus oocytes, K2P channels were subcloned into a previously reported pGEMHE/pMO vector (46). For expression in HEK293 cells, mouse K2P2.1 (TREK-1) and mutants were expressed from a previously described pIRES2-EGFP vector in HEK293 cells (46,47). K2P2.1 (TREK-1) tandems were constructed by connecting the open reading frames for the individual subunits with a linker encoding the […] (SEQ ID NO: 19) sequence. Tandems used for HEK293 cells included an N-terminal HA tag ([…] (SEQ ID NO: 20)) on the first subunit.
(§2) Xenopus laevis oocytes were harvested according to UCSF IACUC Protocol AN129690 and digested using collagenase (Worthington Biochemical Corporation, #LS004183, 0.8-1.0 mg/mL) in Ca^21-free ND96 (96 mM NaCl, 2 mM KCl, 3.8 mM MgCl2, 5 mM HEPES pH 7.4) immediately post-harvest, as previously reported (31,33). Oocytes were maintained at 18° C. in ND96 (96 mM NaCl, 2 mM KCl, 1.8 mM CaCl2, 2 mM MgCl2, 5 mM HEPES pH 7.4) supplemented with antibiotics (100 units mL^−1 penicillin, 100 μg mL^−1 streptomycin, 50 μg mL^−1 gentimycin) and used for experiments within one week of harvest.
(§3) Defolliculated stage V-VI oocytes were microinjected with 0.5-36 ng mRNA and currents were recorded within 16-48 h hours of injection.
(§4) For recordings, oocytes were impaled with borosilicate recording microelectrodes (0.4-2.0 MΩ resistance) backfilled with 3 M KCl and were subjected to constant perfusion of ND96 at a rate of 3 ml min^−1. Recording solutions containing K2P activators were prepared immediately prior to use from DMSO stocks (20-100 mM), with final DMSO concentrations of 0.1%. Currents were evoked from a −80 mV holding potential followed by a 300 ms ramp from −150 mV to +50 mV. Data were recorded using a GeneClamp 500B amplifier (MDS Analytical Technologies) controlled by pCLAMP8 software (Molecular Devices), and digitized at 1 kHz using Digidata 1332 Å digitizer (MDS Analytical Technologies). For each recording, control solution (ND96) was perfused over a single oocyte until current was stable before switching to solutions containing the test compounds at various concentrations. Representative traces and dose response plots were generated in GraphPad Prism 9.

G171F TREK-1^CG* = molecular target: T2, G171F TREK-1^CG* (Mus musculus, UniProt P97438, G186F/S146C); assay: TEVC in Xenopus oocytes, attenuated channels; type: cell-based; details: 20 μM; sequential addition of ML335, CAT335, BL-1249; 0 mV
T2 construct: expressed in transfected cells; host or cells: Xenopus laevis oocytes injected with mRNA
T2 sequence (P97438 1-411 isoform P97438-2 S131C/G171F): T1 sequence (P97438 1-411 isoform P97438-2 S131C/A286F) with G171F, F286A
Description: as §1, §2, §3, §4

Fold-activation (I activator/I control) (A286F TREK-1^CG*)	Fold-activation (I activator/I control) (G171F TREK-1^CG*)	SMILES
53+5 fold	62+3 fold	c1ccc(-c2nn[nH]n2)c(Nc2cccc3c2CCCC3)c1 [BL-1249, reference compound]
21±3 fold	7.8±1.2 fold	O=C(NCc1ccc(Cl)cc1Cl)c1ccc(N2C(=O)C=CC2=O)cc1 [CAT335]
